Source: paper PMC8956739, “A synthetic lipopeptide targeting top-priority multidrug-resistant Gram-negative pathogens” (Nature Communications, 2022)
Converted amounts (≈) assume the structure as drawn. “And” between values parts separate entries of the source, which are not always exact repeats. Identical values can stand only once. Like-named read-outs stand apart in the source and are kept apart here. Residues, ends and D or L forms follow the SMILES beside them.

Experiments:
[1] = Acute toxicity in mice (maximum tolerated dose, IV bolus); assay type: in vivo, mouse; conditions: mouse, in vivo, iv, single IV bolus dose, replicates 1-4; read-out: MTD, single replicate
Procedure, shortened: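 Female Swiss mice (7 weeks, 22–28 g) given single IV tail-vein bolus of lipopeptide in 0.9% saline, dosed as mg/kg free base. Clinical toxicity signs monitored over 0–24 h, most frequently in first 2 h.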

[2] = tested on: P. aeruginosa FADDI-PA102; test: MIC, polymyxin-resistant isolate; assay type: cell-based, Pseudomonas aeruginosa; conditions: carbapenem-resistant
Procedure: (§1) MICs were determined in cation-adjusted Mueller–Hinton broth (CaMHB) by the broth micro-dilution method against ATCC strains and clinical isolates. MICs in the presence of Survanta® were determined as described above against P. aeruginosa ATCC 27853. In the 100 μL of fresh CaMHB containing polymyxins, 10% Survanta® (v/v, 2.5 mg/mL phospholipids) was added. MICs in the presence and absence of Survanta® were compared to determine the effect of binding to lung surfactant on the antibacterial activity of polymyxins.

A. baumannii FADDI-AB156 = test: Neutropenic mouse pneumonia model, polymyxin-resistant isolate; assay type: in vivo; conditions: for Tukey HSD diff, Pre-treatment minus treated group (Log10 CFU/lung) / Tukey HSD diff, Vehicle minus treated group (Log10 CFU/lung): Fig. e; for Log10 CFU/lung: Figure 3e, individual mice
Procedure: (§2) The experimental methodology for the neutropenic mouse lung infection model was previously described in detail. Briefly, Swiss mice (female, 7-week-old, 22–28 g) were rendered neutropenic by intraperitoneal administration of cyclophosphamide, 4 days (150 mg/kg) and 1 day (100 mg/kg) prior to inoculation. Lung infection was established by the administration of 25 µL of early log-phase bacterial suspension (polymyxin-susceptible or resistant isolate, 4 × 10^7 CFU/mL), directly into the lungs via the trachea using a MicroSprayer™ device. Lipopeptide solutions were prepared in sterile saline. At 2 h after inoculation, mice (n = 3 or 4) were administered lipopeptide (45–240 mg/kg/d free base) or control (sterile saline) via an intraperitoneal or subcutaneous bolus injection in three divided doses every 8 h. At 0 or 24 h after the administration of lipopeptide solution or saline (control), animals were euthanized and lungs were collected and homogenized under sterile conditions. Homogenate was filtered and the filtrate was collected, serially diluted in sterile saline, and spread on nutrient agar plates. Agar plates were incubated at 37 °C overnight for bacterial colony counting and the bacterial load of the lung (log10 CFU/lung) in each mouse was calculated. In vivo efficacy was calculated as the difference of the log10 CFU/lung values between the treated mice at 24 h and the pre-treatment (control) at 0 h (Δlog10 CFU/lung = log10 [treated] CFU/lung − log10 [pre-treatment] CFU/lung).

[3] = tested on: K. pneumoniae FADDI-KP132 (mcr-1 positive); test: as above; assay type: in vivo; conditions: for Tukey HSD diff, Pre-treatment minus treated group (Log10 CFU/lung) / Tukey HSD diff, Vehicle minus treated group (Log10 CFU/lung): Fig. f; for Log10 CFU/lung: Figure 3f, individual mice
Procedure: as §2

[4] = tested on: P. aeruginosa FADDI-PA102; test: as above; assay type: in vivo; conditions: for Tukey HSD diff, Pre-treatment minus treated group (Log10 CFU/lung) / Tukey HSD diff, Vehicle minus treated group (Log10 CFU/lung): Fig. d; for Log10 CFU/lung: Figure 3d, individual mice
Procedure: as §2

K. pneumoniae Kp MKP103 = assay type: cell-based, Klebsiella pneumoniae; conditions: polymyxin-resistant
Procedure, shortened: (§3)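 Read-out is the minimum inhibitory concentration, obtained by serially diluting compound in cation-adjusted Mueller–Hinton medium and exposing each isolate in microdilution format.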

[5] = tested on: K. pneumoniae FADDI-KP027; assay type: cell-based, Klebsiella pneumoniae
Procedure, shortened: as §3

[6] = in vivo
Procedure: (§4) The plasma pharmacokinetic profiles of F365 and polymyxin B were assessed in Swiss mice (female, 7-week-old, 22–28 g) after a single intraperitoneal dose (5 mg/kg, n = 3). Blood samples were collected at various time points over 24 h post dosing for analysis. The plasma pharmacokinetic profiles of F365 (n = 5) and polymyxin B (1 mg/kg, n = 11) in Sprague-Dawley rats (male, 10-week-old, 280 to 330 g) were assessed after intravenous administration (1 min) of F365 and polymyxin B via an indwelling jugular vein cannula. Blood samples (~0.3 mL) were collected via an indwelling carotid artery cannula at various time points over 24 h post dosing. Urine samples were collected at 4 °C using a metabolic cage during the period between 0 and 24 h post dosing. Concentrations of F365 and polymyxin B in plasma and urine samples were determined using LC-MS/MS and pharmacokinetic analysis was conducted using WinNonlin (Pharsight Corp., Mountain View, CA). The ELF pharmacokinetic profiles of F365 and polymyxin B was determined in neutropenic Swiss mice (female, 7-week-old, 22–28 g) after subcutaneous injection (40 mg/kg, n = 3). Bronchoalveolar lavage (BAL) samples were collected at various time points over 24 h post dosing from the cannulated trachea using Milli-Q water as BAL washing media. The average volume of ELF in mice was calculated by the ratio of urea concentrations in plasma and BAL samples. Concentrations of F365 and polymyxin B in plasma and BAL were analyzed by LC-MS/MS. Pharmacokinetic parameters were calculated using a non-compartment model with WinNonlin. For mouse, rat, and human plasma protein binding of F365 and polymyxin B, pooled plasma samples (n = 3) from each species were spiked with F365 or polymyxin B. The spiked plasma samples were subjected to ultrafiltration and the corresponding filtrates were analyzed by LC-MS/MS to determine the concentration of F365 and polymyxin B and the protein binding in each species.

[7] = tested on: P. aeruginosa FADDI-PA090; assay type: cell-based, Pseudomonas aeruginosa
Procedure, shortened: as §3

[8] = tested on: P. aeruginosa FADDI-PA070; assay type: cell-based, Pseudomonas aeruginosa
Procedure, shortened: as §3

[9] = assay type: in vitro ADME; conditions: plasma
Procedure: as §4

[10] = tested on: K. pneumoniae FADDI-KP132; test: MIC, polymyxin-resistant isolate; assay type: cell-based, Klebsiella pneumoniae; conditions: mcr-1 positive
Procedure: as §1

Compound: CCCCCCCC(=O)N[C@@H](CCN)C(=O)N[C@H](C(=O)N[C@@H](CN)C(=O)N[C@H]1CCNC(=O)[C@H]([C@@H](C)O)NC(=O)[C@H](CCN)NC(=O)[C@H](CCN)NC(=O)[C@H](CC)NC(=O)[C@@H](CC(C)C)NC(=O)[C@H](CCN)NC1=O)[C@@H](C)O [Lipopeptide F287] (HELM PEPTIDE1{[CCCCCCCC(=O)[*:2]].[Dab].T.[NC[C@H](N[*:1])C(=O)[*:2]].[Dab].[Dab].[dL].[Abu].[Dab].[Dab].T}$PEPTIDE1,PEPTIDE1,5:R3-11:R2$$$V2.0)
- MTD [1]: 6 mg/kg

Compound: CC[C@@H]1NC(=O)[C@@H](CC(C)C)NC(=O)[C@H](CCN)NC(=O)[C@@H](NC(=O)[C@H](CN)NC(=O)[C@@H](NC(=O)[C@H](CCN)NC(=O)c2ccc(Cl)cc2Cl)[C@@H](C)O)CCNC(=O)[C@H]([C@@H](C)O)NC(=O)[C@H](CCN)NC(=O)[C@H](CCN)NC1=O [Lipopeptide F365] (HELM PEPTIDE1{[O=C(c1ccc(Cl)cc1Cl)[*:2]].[Dab].T.[NC[C@H](N[*:1])C(=O)[*:2]].[Dab].[Dab].[dL].[Abu].[Dab].[Dab].T}$PEPTIDE1,PEPTIDE1,5:R3-11:R2$$$V2.0)
- MTD [1]: 13 mg/kg
- MIC P. aeruginosa FADDI-PA102 [2]: 4 mg/L (≈ 3.45 µM)
- Tukey HSD diff, Pre-treatment minus treated group (Log10 CFU/lung) (A. baumannii FADDI-AB156; 120mg/kg/d): 2.4325
- Tukey HSD diff, Vehicle minus treated group (Log10 CFU/lung) (A. baumannii FADDI-AB156; 120mg/kg/d): 3.826
- Tukey HSD diff, Pre-treatment minus treated group (Log10 CFU/lung) (A. baumannii FADDI-AB156; 240mg/kg/d): 4.209
- Tukey HSD diff, Vehicle minus treated group (Log10 CFU/lung) (A. baumannii FADDI-AB156; 240mg/kg/d): 5.603
- Log10 CFU/lung (A. baumannii FADDI-AB156; 120mg/kg/d): 4.13 Log10 CFU/lung and 5.08 Log10 CFU/lung and 3.12 Log10 CFU/lung
- Log10 CFU/lung (A. baumannii FADDI-AB156; 240mg/kg/d): 1.94 Log10 CFU/lung and 2.42 Log10 CFU/lung and 2.64 Log10 CFU/lung
- reduction in CFU/lung ([3]; 240 mg/kg/d subcutaneously, 24 h, maximum over the polymyxin-resistant isolates): up to 4.65 log10 CFU/lung
- Tukey HSD diff, Pre-treatment minus treated group (Log10 CFU/lung) ([3]; 120mg/kg/d): 1.795
- Tukey HSD diff, Vehicle minus treated group (Log10 CFU/lung) ([3]; 120mg/kg/d): 4.6875
- Tukey HSD diff, Pre-treatment minus treated group (Log10 CFU/lung) ([3]; 240mg/kg/d): 4.6475
- Tukey HSD diff, Vehicle minus treated group (Log10 CFU/lung) ([3]; 240mg/kg/d): 7.54
- Log10 CFU/lung ([3]; 120mg/kg/d): 4.02 Log10 CFU/lung and 5.39 Log10 CFU/lung and 2.64 Log10 CFU/lung and 2.94 Log10 CFU/lung
- Log10 CFU/lung ([3]; 240mg/kg/d): 0.00 Log10 CFU/lung (2×) and 1.64 Log10 CFU/lung and 1.94 Log10 CFU/lung
- Tukey HSD diff, Pre-treatment minus treated group (Log10 CFU/lung) ([4]; 120mg/kg/d): 0.69
- Tukey HSD diff, Vehicle minus treated group (Log10 CFU/lung) ([4]; 120mg/kg/d): 1.074
- Tukey HSD diff, Pre-treatment minus treated group (Log10 CFU/lung) ([4]; 240mg/kg/d): 3.307
- Tukey HSD diff, Vehicle minus treated group (Log10 CFU/lung) ([4]; 240mg/kg/d): 3.691
- Log10 CFU/lung ([4]; 120mg/kg/d): 6.56 Log10 CFU/lung and 6.03 Log10 CFU/lung and 7.00 Log10 CFU/lung
- Log10 CFU/lung ([4]; 240mg/kg/d): 4.07 Log10 CFU/lung and 3.82 Log10 CFU/lung and 3.85 Log10 CFU/lung
- MIC K. pneumoniae Kp MKP103 (K. pneumoniae Kp MKP103): 8 mg/L (≈ 6.9 µM)
- MIC K. pneumoniae FADDI-KP027 ([5]; FADDI-KP027): > 32 mg/L
- AUC(0-inf) ([6]; mouse, sc, 40 mg/kg): 86.2 µg·h/mL
- Cmax in ELF relative to polymyxin B ([6]; mouse, sc, 40 mg/kg): 3 fold
- Free AUC(0-∞) in ELF (estimated fAUCELF) ([6]; mouse, sc, 40 mg/kg): 86.2 µg·h/mL
- Total CL ([6]; mouse, sc, 40 mg/kg): 0.46 L/h/kg
- half-life ([6]; mouse, sc, 40 mg/kg): 3.39 h
- urinary recovery relative to polymyxin B ([6]; rat): > 4 fold
- AUC(0-inf) ([6]; rat, iv, 1 mg/kg): 2.4 µg·h/mL
- clearance ([6]; rat, iv, 1 mg/kg): 0.46 L/h/kg
- half-life ([6]; rat, iv, 1 mg/kg): 0.91 h
- MIC P. aeruginosa FADDI-PA090 ([7]; FADDI-PA090): 8 mg/L (≈ 6.9 µM)
- MIC P. aeruginosa FADDI-PA070 ([8]; FADDI-PA070): > 32 mg/L
- fraction unbound ([9]; human): 0.55
- fraction unbound ([9]; mouse): 0.64
- fraction unbound ([9]; rat): 0.67
- MIC K. pneumoniae FADDI-KP132 [10]: 8 mg/L (≈ 6.9 µM)

Compound: Polymyxin B [reference compound]
- MIC P. aeruginosa FADDI-PA102 [2]: 4 mg/L
- Tukey HSD diff, Pre-treatment minus treated group (Log10 CFU/lung) (A. baumannii FADDI-AB156; 90mg/kg/d): -1.5075
- Tukey HSD diff, Vehicle minus treated group (Log10 CFU/lung) (A. baumannii FADDI-AB156; 90mg/kg/d): -0.114
- Log10 CFU/lung (A. baumannii FADDI-AB156; 90mg/kg/d): 8.23 Log10 CFU/lung and 8.17 Log10 CFU/lung and 7.75 Log10 CFU/lung
- Tukey HSD diff, Pre-treatment minus treated group (Log10 CFU/lung) ([3]; 90mg/kg/d): -1.82
- Tukey HSD diff, Vehicle minus treated group (Log10 CFU/lung) ([3]; 90mg/kg/d): 1.0725
- Log10 CFU/lung ([3]; 90mg/kg/d): 7.88 Log10 CFU/lung and 8.02 Log10 CFU/lung and 6.98 Log10 CFU/lung and 6.57 Log10 CFU/lung
- Tukey HSD diff, Pre-treatment minus treated group (Log10 CFU/lung) ([4]; 90mg/kg/d): -0.1967
- Tukey HSD diff, Vehicle minus treated group (Log10 CFU/lung) ([4]; 90mg/kg/d): 0.1873
- Log10 CFU/lung ([4]; 90mg/kg/d): 7.28 Log10 CFU/lung and 7.23 Log10 CFU/lung and 7.74 Log10 CFU/lung
- MIC K. pneumoniae Kp MKP103 (K. pneumoniae Kp MKP103): 16 mg/L
- MIC K. pneumoniae FADDI-KP027 ([5]; polymyxin-resistant): > 32 mg/L
- AUC(0-∞) in ELF ([6]; mouse, sc, 40 mg/kg): 80.0 µg·h/mL
- Free AUC(0-∞) in ELF (estimated fAUCELF) ([6]; mouse, sc, 40 mg/kg): 10.0 µg·h/mL
- Total CL ([6]; mouse, sc, 40 mg/kg): 0.50 L/h/kg
- half-life ([6]; mouse, sc, 40 mg/kg): 6.70 h
- half-life ([6]; rat, iv, 1 mg/kg): 1.45 h
- MIC P. aeruginosa FADDI-PA090 ([7]; polymyxin-resistant): 4 mg/L
- MIC P. aeruginosa FADDI-PA070 ([8]; polymyxin-resistant): > 32 mg/L
- Protein binding ([9]; human): 68%
- Protein binding ([9]; mouse): 95%
- Protein binding ([9]; rat): 80%
- MIC K. pneumoniae FADDI-KP132 [10]: 8 mg/L
